Data published in ChEMBL document CHEMBL1909046, “DrugMatrix in vitro pharmacology data”.

Tests used:
[1] = target: T1, Alpha-1A adrenergic receptor (Rattus norvegicus, UniProt P43140); test: DRUGMATRIX: Alpha-1A adrenergic receptor radioligand binding (ligand: prazosin); type: cell membranes, Wistar, Submaxillary gland, Membrane; details: Not Active = under 50% inhibition at 10 µM
T1 sequence (P43140 whole entry): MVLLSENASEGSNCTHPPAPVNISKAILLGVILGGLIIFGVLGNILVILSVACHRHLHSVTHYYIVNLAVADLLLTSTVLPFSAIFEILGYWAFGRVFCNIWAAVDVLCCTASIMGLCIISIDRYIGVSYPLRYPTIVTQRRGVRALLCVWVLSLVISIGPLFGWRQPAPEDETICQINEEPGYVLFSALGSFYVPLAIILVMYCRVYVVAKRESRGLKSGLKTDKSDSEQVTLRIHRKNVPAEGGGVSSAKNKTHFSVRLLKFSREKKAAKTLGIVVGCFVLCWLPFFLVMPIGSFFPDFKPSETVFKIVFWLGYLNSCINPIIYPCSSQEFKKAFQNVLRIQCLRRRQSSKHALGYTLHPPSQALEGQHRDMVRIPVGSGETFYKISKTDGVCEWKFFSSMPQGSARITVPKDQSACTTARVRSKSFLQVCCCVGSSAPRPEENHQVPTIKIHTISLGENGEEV

[2] = DRUGMATRIX: Calcium Channel Type L, Dihydropyridine radioligand binding (ligand: [3H] Nitrendipine); type: cell membranes, Rattus norvegicus, Wistar, Cerebral cortex, Membrane; details: Not Active = under 50% inhibition at 10 µM
Endothelin-1 receptor = target: T2, Endothelin-1 receptor (Homo sapiens, UniProt P25101); type: cell membranes, CHO-K1, Membrane; details: cho-k1; further: in other assays of this panel Not Active means under 50% inhibition at 10 µM
T2 sequence (P25101 whole entry): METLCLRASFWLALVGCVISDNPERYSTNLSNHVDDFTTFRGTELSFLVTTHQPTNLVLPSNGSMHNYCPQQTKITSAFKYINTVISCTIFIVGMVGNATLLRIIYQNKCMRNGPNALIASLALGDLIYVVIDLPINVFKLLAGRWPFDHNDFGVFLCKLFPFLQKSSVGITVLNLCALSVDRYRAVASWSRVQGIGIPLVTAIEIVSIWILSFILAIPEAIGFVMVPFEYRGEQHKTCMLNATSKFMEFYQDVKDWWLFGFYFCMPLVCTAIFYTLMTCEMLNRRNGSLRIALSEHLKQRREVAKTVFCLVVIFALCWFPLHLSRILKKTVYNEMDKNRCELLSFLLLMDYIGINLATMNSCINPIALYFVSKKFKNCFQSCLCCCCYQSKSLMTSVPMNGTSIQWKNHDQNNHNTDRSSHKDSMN

[3] = DRUGMATRIX: Interleukin IL-1 radioligand binding (ligand: [125I] interleukin 1beta); type: cell membranes, Membrane; details: nih3t3; Not Active = under 50% inhibition at 10 µM
[4] = target: Platelet-activating factor receptor (Homo sapiens, UniProt P25105); type: tissue-based; further: in other assays of this panel Not Active means under 50% inhibition at 10 µM
Chain of Platelet-activating factor receptor (P25105 whole entry): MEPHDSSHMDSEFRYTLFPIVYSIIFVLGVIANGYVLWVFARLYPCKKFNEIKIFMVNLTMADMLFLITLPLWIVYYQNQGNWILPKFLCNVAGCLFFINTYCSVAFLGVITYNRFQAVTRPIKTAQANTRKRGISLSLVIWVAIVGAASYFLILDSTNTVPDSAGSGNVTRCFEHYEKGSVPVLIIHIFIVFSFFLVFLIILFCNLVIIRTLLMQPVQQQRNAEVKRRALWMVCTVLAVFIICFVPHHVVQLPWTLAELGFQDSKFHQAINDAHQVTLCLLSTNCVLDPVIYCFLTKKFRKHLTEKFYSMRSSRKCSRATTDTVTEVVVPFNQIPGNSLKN

[5] = target: 5-hydroxytryptamine receptor 1B (Rattus norvegicus, UniProt P28564); type: cell membranes, Wistar, Cerebral cortex, Membrane; further: in other assays of this panel Not Active means under 50% inhibition at 10 µM
Chain of 5-hydroxytryptamine receptor 1B (P28564 whole entry): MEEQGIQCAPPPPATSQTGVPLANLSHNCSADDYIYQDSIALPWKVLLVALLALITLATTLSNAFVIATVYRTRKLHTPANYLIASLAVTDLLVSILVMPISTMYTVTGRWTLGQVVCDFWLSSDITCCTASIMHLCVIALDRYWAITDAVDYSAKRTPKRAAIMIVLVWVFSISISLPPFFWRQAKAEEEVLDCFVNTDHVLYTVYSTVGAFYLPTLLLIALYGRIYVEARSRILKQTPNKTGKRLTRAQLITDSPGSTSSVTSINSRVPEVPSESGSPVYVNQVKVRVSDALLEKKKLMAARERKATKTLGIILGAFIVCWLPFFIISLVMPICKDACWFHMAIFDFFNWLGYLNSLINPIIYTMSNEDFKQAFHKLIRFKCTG

Adenosine receptor A2a = Adenosine receptor A2a (Homo sapiens, UniProt P29274); test: DRUGMATRIX: Adenosine A2A radioligand binding (ligand: […]); type: cell membranes, Membrane; details: hek293; Not Active = under 50% inhibition at 10 µM
Chain of Adenosine receptor A2a (P29274 whole entry): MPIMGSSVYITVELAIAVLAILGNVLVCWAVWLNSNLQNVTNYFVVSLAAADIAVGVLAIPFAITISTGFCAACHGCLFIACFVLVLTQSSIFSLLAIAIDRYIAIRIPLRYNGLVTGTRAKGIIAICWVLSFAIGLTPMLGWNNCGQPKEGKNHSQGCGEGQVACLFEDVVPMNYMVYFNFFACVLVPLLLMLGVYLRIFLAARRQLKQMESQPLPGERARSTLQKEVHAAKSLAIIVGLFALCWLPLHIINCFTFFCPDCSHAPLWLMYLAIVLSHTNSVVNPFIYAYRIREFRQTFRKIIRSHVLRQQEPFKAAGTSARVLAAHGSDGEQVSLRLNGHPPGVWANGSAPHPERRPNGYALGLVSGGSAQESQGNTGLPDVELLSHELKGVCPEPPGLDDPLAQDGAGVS

Compound | IC50 [1] | IC50 [2] | Ki [2] | IC50 (Endothelin-1 receptor) | IC50 [3] | Ki [3] | IC50 [4] | IC50 [5] | IC50 (Adenosine receptor A2a) | IC50 ([1]; read-out: IC50) [nM] | Ki ([1]; read-out: Ki) [nM] | Ki [1] | Ki (Endothelin-1 receptor) | Ki [4] | Ki [5] | Ki (Adenosine receptor A2a)
C1CCC(C(CC2CCCCN2)C2CCCCC2)CC1 (stereo unspecified) [PERHEXILINE] | Not Active | Not Active | Not Active | Not Active | Not Active | Not Active | Not Active | Not Active | Not Active |  |  |  |  |  |  | 
c1ccc2c(c1)c1cccc3ccc4cccc2c4c31 [BENZO[E]PYRENE] | Not Active | Not Active | Not Active | Not Active | Not Active | Not Active | Not Active | Not Active | Not Active |  |  |  |  |  |  | 
C[C@]12CC[C@@H]3c4ccc(O)cc4CC[C@H]3[C@@H]1CCC2=O [ESTRONE] | Not Active | Not Active | Not Active | Not Active | Not Active | Not Active | Not Active | Not Active | Not Active |  |  |  |  |  |  | 
CNCCc1ccccn1 [BETAHISTINE] | Not Active | Not Active | Not Active | Not Active | Not Active | Not Active | Not Active | Not Active | Not Active |  |  |  |  |  |  | 
Cc1ccccc1N1C(=O)c2cc(S(N)(=O)=O)c(Cl)cc2NC1C (stereo unspecified) [METOLAZONE] | Not Active | Not Active | Not Active | Not Active | Not Active | Not Active | Not Active | Not Active | Not Active |  |  |  |  |  |  | 
O=C1CC[C@@H](N2C(=O)c3ccccc3C2=O)C(=O)N1 | Not Active | Not Active | Not Active | Not Active | Not Active | Not Active | Not Active | Not Active | Not Active |  |  |  |  |  |  | 
Nc1c(Br)cc(Br)cc1CN[C@H]1CC[C@H](O)CC1 [AMBROXOL] | Not Active | Not Active | Not Active | Not Active | Not Active | Not Active | Not Active | Not Active | Not Active |  |  |  |  |  |  | 
Nc1nc2c(ncn2COCCO)c(=O)[nH]1 [ACYCLOVIR] | Not Active | Not Active | Not Active | Not Active | Not Active | Not Active | Not Active | Not Active | Not Active |  |  |  |  |  |  | 
CN(C)CCCN1c2ccccc2Sc2ccccc21 [PROMAZINE] |  | Not Active | Not Active | Not Active | Not Active | Not Active | Not Active | Not Active | Not Active | 9.24 | 3.74 |  |  |  |  | 
CC1(C)O[C@@H]2C[C@H]3[C@@H]4CCC5=CC(=O)CC[C@]5(C)[C@@]4(F)[C@@H](O)C[C@]3(C)[C@]2(C(=O)CCl)O1 [HALCINONIDE] | Not Active | Not Active | Not Active | Not Active | Not Active | Not Active | Not Active | Not Active | Not Active |  |  |  |  |  |  | 
CC1CC(OC(=O)C(O)c2ccccc2)CC(C)(C)C1 (stereo unspecified) [CYCLANDELATE] | Not Active | Not Active | Not Active | Not Active | Not Active | Not Active | Not Active | Not Active | Not Active |  |  |  |  |  |  | 
LEAD (II) ACETATE | Not Active | Not Active | Not Active | Not Active | Not Active | Not Active | Not Active | Not Active | Not Active |  |  | Not Active | Not Active | Not Active | Not Active | Not Active
Sc1ncnc2nc[nH]c12 [MERCAPTOPURINE ANHYDROUS] | Not Active | Not Active | Not Active | Not Active | Not Active | Not Active | Not Active | Not Active | Not Active |  |  |  |  |  |  | 
O=c1[nH]c(=O)n([C@H]2C[C@H](O)[C@@H](CO)O2)cc1I [IDOXURIDINE] | Not Active | Not Active | Not Active | Not Active | Not Active | Not Active | Not Active | Not Active | Not Active |  |  |  |  |  |  | 
CC1(C)S[C@@H]2[C@H](NC(=O)Cc3ccccc3)C(=O)N2[C@H]1C(=O)O [PENICILLIN G] | Not Active | Not Active | Not Active | Not Active | Not Active | Not Active | Not Active | Not Active | Not Active |  |  |  |  |  |  | 
CC1=C2C(=CO[C@H](C)[C@H]2C)C(O)=C(C(=O)O)C1=O [CITRININ] | Not Active | Not Active | Not Active | Not Active | Not Active | Not Active | Not Active | Not Active | Not Active |  |  |  |  |  |  | 
Cc1c(C)c2c(c(C)c1O)CC[C@@](C)(CCC[C@H](C)CCC[C@H](C)CCCC(C)C)O2 [ALPHA-TOCOPHEROL] | Not Active | Not Active | Not Active | Not Active | Not Active | Not Active | Not Active | Not Active | Not Active |  |  |  |  |  |  | 
O=C(O)CCCc1ccc(N(CCCl)CCCl)cc1 [CHLORAMBUCIL] | Not Active | Not Active | Not Active | Not Active | Not Active | Not Active | Not Active | Not Active | Not Active |  |  |  |  |  |  | 
CC[C@@]1(O)C[C@H](O[C@H]2C[C@H](N(C)C)[C@H](O[C@H]3C[C@H](O)[C@H](O[C@H]4CCC(=O)[C@H](C)O4)[C@H](C)O3)[C@H](C)O2)c2c(cc3c(c2O)C(=O)c2c(O)cccc2C3=O)[C@H]1C(=O)OC [ACLARUBICIN] | Not Active | Not Active | Not Active | Not Active | Not Active | Not Active | Not Active | Not Active | Not Active |  |  |  |  |  |  | 
CC(=O)O[C@@]12CO[C@@H]1C[C@H](O)[C@@]1(C)C(=O)[C@H](O)C3=C(C)[C@@H](OC(=O)[C@H](O)[C@@H](NC(=O)OC(C)(C)C)c4ccccc4)C[C@@](O)([C@@H](OC(=O)c4ccccc4)[C@H]21)C3(C)C.O.O.O [DOCETAXEL] | Not Active | Not Active | Not Active | Not Active | Not Active | Not Active | Not Active | Not Active | Not Active |  |  |  |  |  |  | 
CC(C)CN(C[C@@H](O)[C@H](Cc1ccccc1)NC(=O)O[C@H]1CCOC1)S(=O)(=O)c1ccc(N)cc1 | Not Active | Not Active | Not Active | Not Active | Not Active | Not Active | Not Active | Not Active | Not Active |  |  |  |  |  |  | 
C[C@](N)(Cc1ccc(O)c(O)c1)C(=O)O [METHYLDOPA] | Not Active | Not Active | Not Active | Not Active | Not Active | Not Active | Not Active | Not Active | Not Active |  |  |  |  |  |  | 
Nc1nc(N)nc(-c2cc(Cl)ccc2Cl)n1.O=C(O)/C=C\C(=O)O [IRSOGLADINE MALEATE] | Not Active | Not Active | Not Active | Not Active | Not Active | Not Active | Not Active | Not Active | Not Active |  |  |  |  |  |  | 
Nc1ncn([C@@H]2O[C@H](CO)[C@@H](O)[C@H]2O)c(=O)n1 [AZACITIDINE] | Not Active | Not Active | Not Active | Not Active | Not Active | Not Active | Not Active | Not Active | Not Active |  |  |  |  |  |  | 
LIPOPOLYSACCHARIDE E. COLI O55:B5 | Not Active | Not Active | Not Active | Not Active | Not Active | Not Active | Not Active | Not Active | Not Active |  |  | Not Active | Not Active | Not Active | Not Active | Not Active
